SMILES | melting point [°C]
CC(C)(C)NC(=O)[C@@H]1C[C@@H]2CCCC[C@@H]2CN1C[C@H]1OC(=O)N[C@H]1Cc1ccccc1 | 202 to 204
CS(=O)(=O)Nc1cc2occ(NC=O)c(=O)c2cc1Oc1ccccc1 | 236 to 238
COc1cc(CC(C)(C)C(=O)O)cc2c1OC(C)(C)C2 | 88 to 89
CCOC(=O)C(C#N)c1cn(C(=O)OCC)c2cc(Cl)ccc12 (stereo not drawn) | 126 to 128
Oc1cccc2c1C(n1ccnc1)=CCC2 | 186
COc1cc(N=Nc2ccc3[nH]nnc3c2)c(O)c2ccccc12 | 254
O=C(c1ccccc1)c1cnc2cnccc2c1O | 228
OCCN1CCN(c2cc(Sc3ccc(Cl)cc3)nc(-c3ccccc3)n2)CC1 | 118 to 120
CC(=O)NC(CSC(c1ccccc1)(c1ccccc1)c1ccccc1)C(=O)NCCSC(=O)C(C)C (stereo not drawn) | 147 to 148
O=C(Nc1c(Cl)cncc1Cl)c1ccc(OC(F)F)c2oc3ccc([N+](=O)[O-])cc3c12 | > 270
C[Si](C)(C)NS(=O)(=O)c1ccccc1 | 62 to 63
CCOC(=O)c1c[nH]c2c(O)c(OC)ccc2c1=O | 233 to 236
CCCCCc1cc2c(nc(O)n2CCCNC(=O)NC2CCCCC2)c(N)n1 | 202 to 204
C=Cc1cc(C)cc(C)c1CC(=O)N(C)C1(C(=O)OC)CCN(OC)CC1 | 160 to 162
O=C1CCC2CCC(=O)N12 | 179 to 182
COc1cc(N2CCC(N3CCCN(C)CC3)CC2)ccc1Nc1ncc2ccc(-c3ccccc3OC)n2n1 | 69 to 76
CCOC(=O)C=C(C)C=CC=C(C)C=Cc1c(C)sc(C)c1C | 88 to 89
N#CCC1CN(Cc2ccccc2)CCO1 (stereo not drawn) | 62
Cc1nnc2n1-c1ccccc1C(c1ccccc1Cl)OC2C (stereo not drawn) | 176 to 178
CC(C)CCCOc1c(-c2ccc(S(C)(=O)=O)cc2)cnn(-c2ccc(F)c(F)c2)c1=O | 98 to 99
O=C(Oc1ccc(Cl)cc1Cn1nc(-c2ccc(C(F)(F)F)cc2)oc1=O)c1ccc(CCl)cc1 | 142 to 144
CN(C)CC1(C2(O)CCCCC2)Cc2cc3ccn(C)c3cc21 (stereo not drawn) | 148 to 150
Cn1cnc2nc(C#Cc3ccccc3)nn2c1=S | 290 to 295
Cc1nn(CCC(C)O)c(-c2ccc(F)cc2)c1-c1ccc2c(c1)NC(=O)CO2 (stereo not drawn) | 158 to 159
CCc1cccc(CC(=O)O)c1OCCCn1cc(C(=O)NCc2ccc(C(F)(F)F)cc2)c(OC(C)C)n1 | 108

SMILES | melting point [°C]
CC(=NC#N)NC1=CC(C)(C)Oc2ccc(C#N)cc21 | 205 to 206
COc1ccc([C@H](CC(=O)O)N2CCN(CCCc3ccc4c(n3)NCCC4)C2=O)cn1 | 122
c1cc(-c2ccc(N3CCNCC3)nc2)nc(Nc2ccc3cc[nH]c3c2)n1 | 201 to 203
C=Cc1cnc2c(NC(=O)c3c(Cl)cccc3Cl)cccc2c1CO | 243 to 244
O=C1Nc2cc(NC(=O)c3c[nH]cc(-c4ccc(F)cc4)c3=O)c(F)cc2/C1=C/c1ccc[nH]1 | > 300
CC1(C(=O)C2(C)COCOC2)COCOC1 | 100 to 102
CCCN(CCC)C1Cc2c[nH]c3ccc(C(=O)c4ccccc4)c(c23)C1 (stereo not drawn) | 150
O=C(CCc1ccccc1)Nc1cc(C(=O)NCc2ccccc2)ccn1 | 177 to 179
CCCCCCCCOc1ccc(C(=O)Oc2ccc(-c3ccc(OC(=O)[C@H]4CCCO4)cc3)cc2)cc1 | 73
Cc1noc(NS(=O)(=O)c2ccccc2-c2ccc(-c3ncco3)cc2CCN(C)C(=O)Cc2ccccc2)c1C | 98 to 106
C=Cc1c(C(=O)OC)cccc1[N+](=O)[O-] | 44 to 45
Cc1cc(-c2coc3c(C(C)(C)C)cc(C)cc23)c(O)c(C(C)(C)C)c1 | 132 to 134
CCc1nc(-c2ccc(OCCC3CCN(c4ccc(C)nn4)CC3)cc2)no1 | 125
CC(COc1ccc(C(N)=O)c(O)c1)NCC(O)c1ccccc1 (stereo not drawn) | 171 to 173
CN1CCCC1=NC(=O)Nc1ccc(Cl)c(C(F)(F)F)c1 | 175
N#C/C=C/c1coc2ccccc2c1=O | 192 to 194
O=C1CCS(=O)(=O)c2sccc21 | 121 to 122
CN(C)Cc1nc(-c2ncn3c2C2CCCN2C(=O)c2c(Cl)cccc2-3)no1 (stereo not drawn) | 261
CCOc1nc(NCc2ccncc2)nc(Nc2ccc3cc[nH]c3c2)n1 | 198 to 200
Cc1nnc(-c2ccc3occ(-c4ccc(F)cc4)c3c2)o1 | 130 to 131
Cc1ccc(S(=O)(=O)C(CCl)Sc2ccc(Br)cc2)cc1 (stereo not drawn) | 82.5 to 84
CN1C(=O)CN=C(c2ccccc2F)c2cc(NC(=O)NCCCO)ccc21 | 118 to 119
Cc1ncccc1CC(=NC#N)NC(NC(=O)Cc1ccc2ncccc2c1)C(C)(C)C (stereo not drawn) | 132 to 134
O=S(=O)(NCC1CCN(C[C@H]2COc3ccc(Cl)cc3O2)CC1)c1ccc(Cl)cc1 | 152 to 154
CC(C)(CO)NC(=O)c1nn(-c2ccc(F)cc2)c2c1C1CCC2CC1 | 165 to 168

SMILES | melting point [°C]
OCCC#Cc1ccc2c(-c3ccc(Cl)cc3)nsc2c1 | 128 to 129
Cc1ccccc1C(=O)NC(NC(=S)Nc1cccnc1)C(C)(C)C (stereo not drawn) | 186 to 187
CC(=O)SC(CC(=O)c1ccc(Oc2cccc(Cl)c2)cc1)C(=O)O (stereo not drawn) | 122 to 125
O=S1(=O)N=C(NCCCOc2cccc(CN3CCCCC3)c2)c2ccc(F)cc21 | 139 to 163
Cc1cncn1Cc1ccc2ccc3c(c2c1)C(C)(C)C(=O)O3 | 88 to 91
CCOC(=O)C(=CNC1CC1)C(=O)c1c(F)cc(F)c(F)c1N(Cc1ccccc1)C(C)=O | 119 to 121
CCCCc1oc2ccccc2c1C(=O)NCc1ccc2c(-c3ccc(Cl)cc3)c(OCc3nnn[nH]3)ccc2c1 | 208 to 211
CCOC(=O)N1CCC(Nc2nc3ccccc3n2Cc2ccc(CO)o2)CC1 | 138 to 140
CC(=O)Nc1ccnn1-c1c(F)cc(C(F)(F)F)cc1Cl | 144 to 146
O=C1c2ccccc2C(=O)N1[C@@H]1C[C@H](O)[C@@H](O)[C@H]1O (racemic) | 175 to 176
CCOP(=O)(Cc1cccc(-c2nc(=O)c3ccccc3s2)n1)OCC | 116
COC(=O)c1nccc(N)n1 | 140 to 142
O=C(NCC(F)(F)F)c1ccc(-c2ccc3nnn(Cc4ccc5ncccc5c4)c3n2)cc1F | 194 to 196
C=Cc1cc(OCOCCOC)c(OCOCCOC)c(Cl)c1Cl | 60
CNC(=O)/C=C/c1ccc(C(=O)NCC(=O)N(C)c2ccc(Cl)c(COc3cccc4ccc(C)nc34)c2Cl)cc1 | 143 to 150
Nc1ccc2c(=O)n3c(nc2c1)C(=Cc1ccccc1)CCC3 | 190 to 193
NC(=S)Nc1cc(F)ccc1-c1ccccc1 | 185 to 187
CSc1c(C#N)nn(-c2c(Cl)cc(C(F)(F)F)cc2Cl)c1N | 147 to 148
O=c1[nH]sc2nc(N3CCCCC3)ncc12 | 268 to 269
Cc1c(NC(=O)c2ccc(-c3ccc4c(c3)CCO4)cc2)ccc2cc(CN3CCCC3)cnc12 | 176 to 177
CC(CS(=O)(=O)c1ccccc1)C1CCC2C3CC=C4C(C)(C)C(O)CCC4(C)C3CCC12C (stereo not drawn) | 176 to 181
CN(C)C(c1cccs1)C1CCC(=NO)CC1 (stereo not drawn) | 118 to 121
Cc1cccc(-c2[nH]c(C3CC3)nc2-c2cccc(-c3ccc(C(=O)NC4CCOCC4)cc3)c2)n1 | 127 to 128
CCCCCCCCCCCCCCCCSC(=O)Nc1ccc(NC(=O)NS(=O)(=O)c2ccc3ccccc3c2)cc1 | 190
Cn1cc(C(=O)NCC(=O)NCC2(O)CCC2)c(C(F)(F)F)n1 | 210

SMILES | melting point [°C]
Clc1nn2c(-c3ccccc3)nnc2c2ccccc12 | 172 to 174
Cc1ccc2c(-c3ccccc3)onc2c1 | 77.8
CCCCNC(=N)OC(=N)N(CCCC)c1cccc(-c2ccnc3c(C(=O)c4cccs4)cnn23)c1 | 180 to 181
NCCCP(=O)(O)C1CCCCC1 | 202 to 203
CC(=O)c1c(C)c2cnc(Nc3ccc(N4CCNCC4)nc3)nc2n(C2CCCC2)c1=O | 125
c1cnc(NC2CCN(CC3CCc4ccccc4O3)CC2)nc1 (stereo not drawn) | 142
O=C(c1ccccc1)n1c(=O)c(C(F)(F)F)cn(C2CC(OCc3ccccc3)C(CO)O2)c1=O (stereo not drawn) | 154 to 155
N#Cc1nn(-c2c(Cl)cc(C(F)(F)F)cc2Cl)c(N)c1C1CC1(Br)Br (stereo not drawn) | 178 to 179
OCc1ccc(-c2cc3nccnc3[nH]2)cc1 | 284 to 285
O=c1[nH]c2ccccc2n1C1CCN(C[C@@H]2CO[C@@H](c3ccc(F)cc3)C2)CC1 (relative stereo) | 154 to 155
c1ccc(CN2CCN(Cc3c[nH]c4ncccc34)CC2)cc1 | 153
ON=CCc1ccccc1 | 90 to 94
COCOc1cc2c(cc1-c1cc(C=CC(=O)O)ccc1O)C(C)(C)CCC2(C)C | 101 to 103
COC(=O)C(=C1NCCCO1)[N+](=O)[O-] | 132 to 133
CC(C)(C)c1cc2c(c(C(C)(C)C)c1)O[Si](c1ccccc1)(c1ccccc1)Oc1c(cc(C(C)(C)C)cc1C(C)(C)C)S2 | 202 to 205
CCSCC12CCC(=O)C=C1CCC1C3CC(CC)C(=O)C3(C)CCC12 (stereo not drawn) | 73
NC(=O)c1cc(NC(=O)c2ccccc2)ccc1SSc1ccc(NC(=O)c2ccccc2)cc1C(N)=O | 273 to 274
CSC(=NC#N)NCCCOc1cccc(CN2CCCC2)c1 | 107 to 108
CC(C)(C)CC(=O)c1c(-c2ccc3c(Br)c(OCC(=O)O)ccc3c2)sc2ccccc12 | 206 to 207
NC(=O)CN1C(=O)CN2C(=O)CCC12 (stereo not drawn) | 182 to 185
COC(=O)c1ccc(C(=O)Nc2sc3c(c2C(=O)NCc2ccc4c(c2)OCO4)CCCC3)cc1 | 138
O=CC(=Cc1ccccc1OCc1ccccc1)C(C=O)=Cc1ccccc1OCc1ccccc1 | 120 to 121
Cc1nc(-c2ccccc2)sc1CNC(=O)c1ccnc(N2CCN(Cc3ccc(F)cc3)C2=O)c1 | 182 to 184

— a melting point compilation (Tetko et al.; mined from patent text by program, amines drawn as free bases though some values may be those of a salt)
